PubChem BioAssay (NCI)
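48-hour exposure; five concentrations; linearly interpolated endpoints. At the GI50, growth is halved. The concentration for full growth arrest is given as TGI.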

Assays:
Test in all cases: NCI tumour cell line growth inhibition, 48 h; in the data active = GI50 below about 0.43 µM; inactive = the rest
[1] = test system: DU-145 prostate
[2] = test system: SK-OV-3 ovarian
[3] = test system: SNB-19 CNS
[4] = test system: HCT-15 colon
[5] = test system: ACHN renal
[6] = test system: SK-MEL-5 melanoma
[7] = test system: SF-295 CNS
[8] = test system: RPMI-8226 leukemia
[9] = test system: MOLT-4 leukemia
[10] = test system: CCRF-CEM leukemia

CCOC(=O)c1cn2c(n1)sc1cccc(C)c12
> 100 µM: TGI [1] | TGI [2] | TGI [3] | TGI [4] | TGI [5] | TGI [6] | TGI [7]

O=C1CSC(c2ccc(Cl)cc2)N1c1ccc(Oc2ccc(Cl)cc2)c(Cl)c1 (centres undefined)
31.9 µM: TGI [2]
63.8 µM: TGI [8]
31.2 µM: TGI [5]
29.5 µM: TGI [4]
30.8 µM: TGI [7]
27.2 µM: TGI [1]
45 µM: TGI [9]
32.4 µM: TGI [6]
30.6 µM: TGI [10]
30.2 µM: TGI [3]

COC(CCC[N+](C)(C)C)CC[N+](C)(C)C (centres undefined)
> 100 µM: TGI [1] | TGI [2] | TGI [3] | TGI [4] | TGI [5] | TGI [8] | TGI [6] | TGI [7] | TGI [9] | TGI [10]

COc1cc(C(=O)N(C(=S)OCc2ccccn2)c2ccccc2)cc(OC)c1OC
99.8 µM: TGI [8]
> 100 µM: TGI [1] | TGI [2] | TGI [3] | TGI [4] | TGI [5] | TGI [6] | TGI [9] | TGI [10]

CCCCCCCCCCCCCCNC(=O)CCC(NC(=O)c1ccc(N(C)Cc2cnc3nc(N)nc(N)c3n2)cc1)C(=O)NCCCCCCCCCCCCCC (centres undefined)
28.9 µM: TGI [7]
28.3 µM: TGI [2]
28.2 µM: TGI [4]
> 61.4 µM: TGI [3]
30.1 µM: TGI [5]
> 31.6 µM: TGI [10]
> 81.7 µM: TGI [6]
> 100 µM: TGI [1]
27.3 µM: TGI [9]

Cc1ccc(C(=O)O)cc1S(=O)(=O)Nn1cnc2ccc(S(=O)(=O)Nc3ccccc3C(=O)O)cc2c1=O
> 100 µM: TGI [1] | TGI [2] | TGI [3] | TGI [4] | TGI [5] | TGI [8] | TGI [7] | TGI [9] | TGI [10]

CCC(C(=O)O)c1ccc(OC)cc1 (centres undefined)
> 100 µM: TGI [2] | TGI [3] | TGI [5] | TGI [8] | TGI [6] | TGI [7] | TGI [9] | TGI [10]

Nc1nc(Cl)cc(NCC2(CO)CC(=O)C2)n1
> 100 µM: TGI [1] | TGI [2] | TGI [3] | TGI [4] | TGI [5] | TGI [8] | TGI [6] | TGI [7] | TGI [9] | TGI [10]

COc1ccc(N/N=C2\CCOc3ccc(C)cc3C2=O)cc1
85.4 µM: TGI [9]
48.7 µM: TGI [4]
50.6 µM: TGI [6]
80.2 µM: TGI [2]
84.1 µM: TGI [8]
> 100 µM: TGI [1] | TGI [3] | TGI [5] | TGI [7] | TGI [10]

CO/C(=N\N=C\c1ccc(C(F)(F)F)cc1)c1ccncc1
> 10 µM: TGI [1] | TGI [3] | TGI [4] | TGI [5] | TGI [8] | TGI [7] | TGI [9] | TGI [10]

Cc1c(O)c(O)cc[n+]1C1OC(CO)C(O)C1O (centres undefined)
> 100 µM: TGI [2] | TGI [3] | TGI [4] | TGI [5] | TGI [8] | TGI [10]

CC1CCC(n2c3cnccc3c3cnc(Nc4ccc5c(n4)CCN(C(=O)CO)C5)nc32)CC1 (centres undefined)
> 100 µM: TGI [2] | TGI [3] | TGI [4] | TGI [5] | TGI [8] | TGI [6] | TGI [9] | TGI [10]
inactive: GI50 [2] > 100 µM | GI50 [3] 0.845 µM | GI50 [5] 0.469 µM | GI50 [8] 1.43 µM | GI50 [6] 0.792 µM | GI50 [10] 0.448 µM
active: GI50 [4] 0.418 µM | GI50 [9] 0.211 µM

Nn1c(-c2ccccc2)nn(C(=O)c2ccccc2)c1=O
> 100 µM: TGI [1] | TGI [3] | TGI [4] | TGI [5] | TGI [8] | TGI [6] | TGI [7] | TGI [9] | TGI [10]

C[C@]12CCC(O)CC1=CC[C@@H]1[C@@H]2CC[C@]2(C)C(=O)[C@H](n3ccnc3)C[C@@H]12 (some centres undefined)
53.1 µM: TGI [9]
> 100 µM: TGI [1] | TGI [3] | TGI [4] | TGI [5] | TGI [8] | TGI [7] | TGI [10]
45.2 µM: TGI [6]

O=c1[nH]c(Nc2cccc(CC(F)(F)F)c2)nc2nc[nH]c12
> 100 µM: TGI [1] | TGI [2] | TGI [3] | TGI [4] | TGI [5] | TGI [8] | TGI [6] | TGI [7] | TGI [10]

COc1ccc(-c2cc(O)c3nc4ccccc4n3c2)cc1
> 100 µM: TGI [1] | TGI [3] | TGI [4] | TGI [8] | TGI [7] | TGI [9] | TGI [10]

O=C1CC(NC(=O)C(F)(F)F)c2c(Br)sc(N3CCNCC3)c21 (centres undefined)
> 100 µM: TGI [1] | TGI [2] | TGI [3] | TGI [4] | TGI [5] | TGI [6] | TGI [7] | TGI [9] | TGI [10]

COc1cc2nc3n(c(=O)c2cc1OC)-c1ccc([N+](=O)[O-])cc1C3=O
> 100 µM: TGI [1] | TGI [2] | TGI [3] | TGI [4] | TGI [5] | TGI [8] | TGI [6] | TGI [7] | TGI [9]

CC(=O)OC1CC(OC2C(O)CC(OC3C(O)CC(OC4CCC5(C)C(CCC6C5CC(O)C5(C)C(C7=CC(=O)OC7)CCC65O)C4)OC3C)OC2C)OC(C)C1OC1OC(CO)C(O)C(O)C1O (centres undefined)
0.161 µM: TGI [6]
0.146 µM: TGI [5]
0.179 µM: TGI [7]
> 100 µM: TGI [9]
25.7 µM: TGI [8]
0.957 µM: TGI [3]
0.333 µM: TGI [2]
0.16 µM: TGI [4]
0.106 µM: TGI [1]

C1CN(c2nc3c(nnc4nc(N5CCOCC5)sc43)s2)CCO1
> 100 µM: TGI [1] | TGI [3] | TGI [4] | TGI [5] | TGI [8] | TGI [6] | TGI [7] | TGI [9] | TGI [10]

C1=C2/CC[C@H](Sc3ccccc3)C2C2(CCCCC/1)OCCO2 (some centres undefined)
73.7 µM: TGI [8]
85.9 µM: TGI [5]
> 100 µM: TGI [3] | TGI [7] | TGI [9] | TGI [10]

CCCCC#C[I+]c1ccccc1
30.4 µM: TGI [2]
30.9 µM: TGI [3] | TGI [5]
30 µM: TGI [4]
23.9 µM: TGI [9]
31.1 µM: TGI [6]
43.5 µM: TGI [7]
24.4 µM: TGI [10]

Nc1nc(SCCc2ccccc2)c2[nH]cnc2n1
> 100 µM: TGI [1] | TGI [3] | TGI [4] | TGI [5] | TGI [6] | TGI [7] | TGI [9] | TGI [10]
